Key:
[1] = biological target: GDP-bound KRAS wild-type protein (Homo sapiens, UniProt P01116); assay: Binding to KRAS by surface plasmon resonance (SPR), dissociation constant KD; conditions: Single Cycle Kinetics, 1:1 binding model
Method in brief: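 Recombinant RAS proteins bearing a biotinylated Avi tag and loaded with GDP served as the captured ligand, recaptured fresh every cycle. Binding responses were referenced to an uncoated surface and a buffer-only blank cycle. Dissociation constants were obtained by 1:1 model fitting at 30°C.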

[2] = biological target: GDP-bound NRAS wild-type protein (Homo sapiens, UniProt P01111); assay: Binding to NRAS by surface plasmon resonance (SPR), KD and KD ratio to KRAS; conditions: ratio of KD with respect to GDP-bound NRAS wild-type protein to KD with respect to KRAS
Method in brief: (§1)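 Captured GDP-RAS (~100–300 RU) was exposed to increasing compound concentrations, 75 s per step, in running buffer with 10 µM GDP, 10 mM MgCl2 and 4% DMSO at pH 7.4.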

HRAS wild-type protein = HRAS wild-type protein (Homo sapiens, UniProt P01112); assay: Binding to HRAS by surface plasmon resonance (SPR), KD and KD ratio to KRAS; conditions: ratio of KD with respect to HRAS wild-type protein to KD with respect to KRAS
Method in brief: as §1

[3] = system: human lung cancer strain NCI-H441; assay: NCI-H441 cell proliferation inhibitory activity (CellTiter-Glo, 4 days); format: cell-based; conditions: 50% proliferation inhibitory concentration, four days, read-out: NCl-H441 IC50
Method in brief: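 Step one: dispense the test compound in serial DMSO dilutions. Step three: add the reagent and measure […].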

Sequence of GDP-bound KRAS wild-type protein (P01116 1-188 isoform P01116-2): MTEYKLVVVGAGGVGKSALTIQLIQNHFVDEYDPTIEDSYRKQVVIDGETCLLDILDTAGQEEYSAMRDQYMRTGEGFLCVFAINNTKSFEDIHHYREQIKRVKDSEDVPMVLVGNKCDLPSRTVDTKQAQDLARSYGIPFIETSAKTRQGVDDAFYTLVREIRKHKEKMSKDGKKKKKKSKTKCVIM
Sequence of HRAS wild-type protein (P01112 whole entry): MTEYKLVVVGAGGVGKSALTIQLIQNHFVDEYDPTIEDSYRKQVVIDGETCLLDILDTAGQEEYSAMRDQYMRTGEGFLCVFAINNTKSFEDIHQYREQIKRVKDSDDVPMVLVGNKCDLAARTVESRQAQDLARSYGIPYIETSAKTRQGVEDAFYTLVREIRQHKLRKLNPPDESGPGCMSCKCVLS
Sequence of GDP-bound NRAS wild-type protein (P01111 whole entry): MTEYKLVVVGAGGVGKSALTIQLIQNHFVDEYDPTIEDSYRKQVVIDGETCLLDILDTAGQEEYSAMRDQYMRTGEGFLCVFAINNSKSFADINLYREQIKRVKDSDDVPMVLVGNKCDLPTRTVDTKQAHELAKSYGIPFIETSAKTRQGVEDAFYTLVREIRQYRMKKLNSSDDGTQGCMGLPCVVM

SMILES	Kd [1] [nM]	NRAS /KRAS [2]	HRAS /KRAS (HRAS wild-type protein)	IC50 [3] [nM]
CCO[C@@H]1C[C@H]2C(=O)NC3(CCC3)C(=O)N(C)[C@@H](C3CCCC3)C(=O)N(C)[C@H](C(=O)N3CCOCC3)CC(=O)N(C)[C@@H](CC(C)C)C(=O)N[C@@H]([C@@H](C)CC)C(=O)N3CC[C@H]3C(=O)N(C)[C@H]3C[C@@H](C)[C@@H](C)CN(C3=O)[C@@H](Cc3ccc(C(F)(F)F)cc3)C(=O)N(C)CC(=O)N[C@@H](CCc3ccc(C(F)(F)F)c(Cl)c3)C(=O)N2C1 [PP1361]	0.15	A (a compound having 10 or more and less than 20 is denoted as A)	B (a compound having 3 or more and less than 10 is denoted as B)	6.2
CCO[C@@H]1C[C@H]2C(=O)NC3(CCCC3)C(=O)N(C)[C@@H](C3CCCC3)C(=O)N(C)[C@H](C(=O)N(C)C)CC(=O)N(C)[C@@H](CC3CC3)C(=O)N[C@@H]([C@@H](C)CC)C(=O)N(C)CC(=O)N(C)[C@H]3C[C@@H](C)[C@@H](C)CN(C3=O)[C@@H](Cc3ccc(C(F)(F)F)cc3)C(=O)N(C)CC(=O)N[C@@H](CCc3ccc(C(F)(F)F)c(Cl)c3)C(=O)N2C1 [PP1362]	0.037	A (a compound having 10 or more and less than 20 is denoted as A)	B (a compound having 3 or more and less than 10 is denoted as B)	3.7
CC[C@H](C)[C@@H]1NC(=O)[C@H](CC)N(C)C(=O)C[C@@H](C(=O)N2CCOCC2)N(C)C(=O)[C@H](C2CCCC2)N(C)C(=O)C2(CCCC2)NC(=O)[C@@H]2CCCN2C(=O)[C@H](CCc2cc(F)c(C(F)(F)F)c(F)c2)NC(=O)CN(C)C(=O)[C@H](Cc2ccc(C(F)(F)F)cc2)N2C[C@H](C)[C@H](C)C[C@@H](C2=O)N(C)C(=O)CN(C)C1=O [PP1365]	0.13	A (a compound having 10 or more and less than 20 is denoted as A)	B (a compound having 3 or more and less than 10 is denoted as B)	4.2
CC[C@H](C)[C@@H]1NC(=O)[C@H](CC)N(C)C(=O)C[C@@H](C(=O)N2CCOCC2)N(C)C(=O)[C@H](C2CCCC2)N(C)C(=O)C2(CCC2)NC(=O)[C@@H]2CCCN2C(=O)[C@H](CCc2cc(F)c(C(F)(F)F)c(F)c2)NC(=O)CN(C)C(=O)[C@H](Cc2ccc(C(F)(F)F)cc2)N2C[C@H](C)[C@H](C)C[C@@H](C2=O)N(C)C(=O)CN(C)C1=O [PP1366]	0.11	A (a compound having 10 or more and less than 20 is denoted as A)	B (a compound having 3 or more and less than 10 is denoted as B)	14
CC[C@H](C)[C@@H]1NC(=O)[C@H](CC(C)C)N(C)C(=O)C[C@@H](C(=O)N2CCOCC2)N(C)C(=O)[C@H](C2CCCC2)N(C)C(=O)C2(CCC2)NC(=O)[C@@H]2CCCN2C(=O)[C@H](CCc2cc(F)c(C(F)(F)F)c(F)c2)NC(=O)CN(C)C(=O)[C@H](Cc2ccc(C(F)(F)F)cc2)N2C[C@H](C)[C@H](C)C[C@@H](C2=O)N(C)C(=O)[C@@H]2CCN2C1=O [PP1367]	0.34	A (a compound having 10 or more and less than 20 is denoted as A)	B (a compound having 3 or more and less than 10 is denoted as B)	29.3
CC[C@H](C)[C@@H]1NC(=O)[C@H](CC2CC2)N(C)C(=O)C[C@@H](C(=O)N(C)C)N(C)C(=O)[C@H](C2CCCC2)N(C)C(=O)C2(CCCC2)NC(=O)[C@@H]2CCCN2C(=O)[C@H](CCc2cc(F)c(C(F)(F)F)c(F)c2)NC(=O)CN(C)C(=O)[C@H](Cc2ccc(C(F)(F)F)cc2)N2C[C@H](C)[C@H](C)C[C@@H](C2=O)N(C)C(=O)CN(C)C1=O [PP1368]	0.061	A (a compound having 10 or more and less than 20 is denoted as A)	B (a compound having 3 or more and less than 10 is denoted as B)	2.9
CCO[C@@H]1C[C@H]2C(=O)NC3(CCCC3)C(=O)N(C)[C@@H](C3CCCC3)C(=O)N(C)[C@H](C(=O)N(C)C)CC(=O)N(C)[C@@H](CC)C(=O)N[C@@H]([C@@H](C)CC)C(=O)N(C)CC(=O)N(C)[C@H]3CC[C@@H](C)CN(C3=O)[C@@H](Cc3ccc(C(F)(F)F)cc3)C(=O)N(C)CC(=O)N[C@@H](CCc3cc(F)c(C(F)(F)F)c(F)c3)C(=O)N2C1 [PP1370]	0.057	C (A compound having a KD ratio of 0.1 or more and less than 3 is denoted as C)	C (A compound having a KD ratio of 0.1 or more and less than 3 is denoted as C)	2.3
CCO[C@@H]1C[C@H]2C(=O)NC3(CCCC3)C(=O)N(C)[C@@H](C3CCCC3)C(=O)N(C)[C@H](C(=O)N3CCOCC3)CC(=O)N(C)[C@@H](CC)C(=O)N[C@@H]([C@@H](C)CC)C(=O)N(C)CC(=O)N(C)[C@H]3CC[C@@H](C)CN(C3=O)[C@@H](Cc3ccc(C(F)(F)F)cc3)C(=O)N(C)CC(=O)N[C@@H](CCc3cc(F)c(C(F)(F)F)c(F)c3)C(=O)N2C1 [PP1371]	0.077	A (a compound having 10 or more and less than 20 is denoted as A)	B (a compound having 3 or more and less than 10 is denoted as B)	5.1
CCO[C@@H]1C[C@H]2C(=O)NC3(CCC3)C(=O)N(C)[C@@H](C3CCCC3)C(=O)N(C)[C@H](C(=O)N3CCOCC3)CC(=O)N(C)[C@@H](CC)C(=O)N[C@@H]([C@@H](C)CC)C(=O)N(C)CC(=O)N(C)[C@H]3CC[C@@H](C)CN(C3=O)[C@@H](Cc3ccc(C(F)(F)F)cc3)C(=O)N(C)CC(=O)N[C@@H](CCc3cc(F)c(C(F)(F)F)c(F)c3)C(=O)N2C1 [PP1372]	0.078	B (a compound having 3 or more and less than 10 is denoted as B)	B (a compound having 3 or more and less than 10 is denoted as B)	5
CCO[C@@H]1C[C@H]2C(=O)NC3(CCC3)C(=O)N(C)[C@@H](C3CCCC3)C(=O)N(C)[C@H](C(=O)N3CCOCC3)CC(=O)N(C)[C@@H](CC(C)C)C(=O)N[C@@H]([C@@H](C)CC)C(=O)N3CC[C@H]3C(=O)N(C)[C@H]3CC[C@@H](C)CN(C3=O)[C@@H](Cc3ccc(C(F)(F)F)cc3)C(=O)N(C)CC(=O)N[C@@H](CCc3cc(F)c(C(F)(F)F)c(F)c3)C(=O)N2C1 [PP1373]	0.35	B (a compound having 3 or more and less than 10 is denoted as B)	B (a compound having 3 or more and less than 10 is denoted as B)	12.2
CCO[C@@H]1C[C@H]2C(=O)NC3(CCC3)C(=O)N(C)[C@@H](C3CCCC3)C(=O)N(C)[C@H](C(=O)N3CCOCC3)CC(=O)N(C)[C@@H](CC)C(=O)N[C@@H]([C@@H](C)CC)C(=O)N3CC[C@H]3C(=O)N(C)[C@H]3CC[C@@H](C)CN(C3=O)[C@@H](Cc3ccc(C(F)(F)F)cc3)C(=O)N(C)CC(=O)N[C@@H](CCc3ccc(C(F)(F)F)c(Cl)c3)C(=O)N2C1 [PP1375]	0.23	B (a compound having 3 or more and less than 10 is denoted as B)	B (a compound having 3 or more and less than 10 is denoted as B)	11.5
CCO[C@@H]1C[C@H]2C(=O)NC3(CCCC3)C(=O)N(C)[C@@H](C3CCCC3)C(=O)N(C)[C@H](C(=O)N(C)C)CC(=O)N(C)[C@@H](CC)C(=O)N[C@@H]([C@@H](C)CC)C(=O)N(C)CC(=O)N(C)[C@H]3CC[C@@H](C)CN(C3=O)[C@@H](Cc3ccc(C(F)(F)F)cc3)C(=O)N(C)CC(=O)N[C@@H](CCc3ccc(C(F)(F)F)c(Cl)c3)C(=O)N2C1 [PP1376]	0.037	B (a compound having 3 or more and less than 10 is denoted as B)	B (a compound having 3 or more and less than 10 is denoted as B)	3.5
CCO[C@@H]1C[C@H]2C(=O)NC3(CCCC3)C(=O)N(C)[C@@H](C3CCCC3)C(=O)N(C)[C@H](C(=O)N3CCOCC3)CC(=O)N(C)[C@@H](CC)C(=O)N[C@@H]([C@@H](C)CC)C(=O)N(C)CC(=O)N(C)[C@H]3CC[C@@H](C)CN(C3=O)[C@@H](Cc3ccc(C(F)(F)F)cc3)C(=O)N(C)CC(=O)N[C@@H](CCc3ccc(C(F)(F)F)c(Cl)c3)C(=O)N2C1 [PP1377]	0.087	B (a compound having 3 or more and less than 10 is denoted as B)	B (a compound having 3 or more and less than 10 is denoted as B)	5.8
CCO[C@@H]1C[C@H]2C(=O)NC3(CCC3)C(=O)N(C)[C@@H](C3CCCC3)C(=O)N(C)[C@H](C(=O)N3CCOCC3)CC(=O)N(C)[C@@H](CC)C(=O)N[C@@H]([C@@H](C)CC)C(=O)N(C)CC(=O)N(C)[C@H]3CC[C@@H](C)CN(C3=O)[C@@H](Cc3ccc(C(F)(F)F)cc3)C(=O)N(C)CC(=O)N[C@@H](CCc3ccc(C(F)(F)F)c(Cl)c3)C(=O)N2C1 [PP1378]	0.081	B (a compound having 3 or more and less than 10 is denoted as B)	C (A compound having a KD ratio of 0.1 or more and less than 3 is denoted as C)	6.6

Reference: patent EP4603105A1, “PHARMACEUTICAL COMPOSITION CONTAINING CYCLIC COMPOUND HAVING SELECTIVE KRAS INHIBITORY EFFECT AGAINST HRAS AND NRAS” (CHUGAI SEIYAKU KABUSHIKI KAISHA, priority 2022, dated 2024)
